ChEMBL document CHEMBL4813953, “Kinetics-Driven Drug Design Strategy for Next-Generation Acetylcholinesterase Inhibitors to Clinical Candidate” (J Med Chem, 2021)
Active and inactive are the calls of the source. No cut-off for these calls is given here.

Experiments:
[1] = Tmax in Sprague-Dawley rat brain at 10 mg/kg, po; format: ADME, organism-based
[2] = Cardiotoxicity in Beagle dog assessed as effect on PR interval at 0.1 to 1 mg/kg; format: toxicity, organism-based, Canis lupus familiaris; conditions: in vivo, dose 0.1-1 mg/kg
[3] = Tmax in human plasma at 8 mg, po; format: ADME, cell-free
[4] = biological target: Voltage-gated inwardly rectifying potassium channel KCNH2 (Homo sapiens, UniProt Q12809); experiment: Inhibition of human ERG
[5] = Cmax in Beagle dog at 0.25 mg/kg, po; format: ADME, organism-based, Canis lupus familiaris; design: route oral, dose 0.25 mg/kg; conditions: in vivo
Cytochrome P450 2B6 = biological target: T1, Cytochrome P450 2B6 (Homo sapiens, UniProt P20813); experiment: Inhibition of CYP2B6 in human hepatocytes; format: ADME, cell-based, Hepatocyte
T1 sequence (P20813 whole entry): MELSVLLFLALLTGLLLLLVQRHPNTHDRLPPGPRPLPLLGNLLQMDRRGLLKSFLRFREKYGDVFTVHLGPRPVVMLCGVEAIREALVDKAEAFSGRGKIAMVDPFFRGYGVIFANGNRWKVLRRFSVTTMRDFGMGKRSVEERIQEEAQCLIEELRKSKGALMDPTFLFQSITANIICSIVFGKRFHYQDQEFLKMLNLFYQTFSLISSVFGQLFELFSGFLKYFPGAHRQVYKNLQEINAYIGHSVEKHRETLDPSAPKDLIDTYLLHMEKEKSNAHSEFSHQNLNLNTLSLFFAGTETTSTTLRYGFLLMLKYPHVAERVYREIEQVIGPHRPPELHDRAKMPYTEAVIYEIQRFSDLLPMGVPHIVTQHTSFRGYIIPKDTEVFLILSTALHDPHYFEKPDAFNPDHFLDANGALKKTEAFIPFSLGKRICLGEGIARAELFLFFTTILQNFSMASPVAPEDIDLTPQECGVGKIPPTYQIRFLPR

[6] = Cmax in human plasma at 2 mg, po; format: ADME, cell-free; design: route oral, dose 2 mg
[7] = Genotoxicity in ICR mouse at 7.5 to 30 mg/kg, po administered once a day for 2 consecutive days by micronucleus test; format: toxicity, organism-based; conditions: in vivo, 48 h, dose 7.5-30 mg/kg, time 2 day
Mus musculus [8] = experiment: Improvement in learning and spatial memory in APP/PS1 double mutant-transgenic mouse model assessed as increase in number of platform crossings at 0.5 to 1 mg/kg, po for 3 months measured during probe trial by Morris water maze test; format: functional, organism-based; conditions: dose 0.5-1 mg/kg
Acetylcholinesterase = Acetylcholinesterase (Homo sapiens, UniProt P22303); experiment: Binding affinity to CM5 sensor chip immobilized recombinant human AChE assessed as dissociation constant at 298.15 K by surface plasmon resonance assay
[9] = Genotoxicity in Salmonella typhimurium TA102 by Ames test; format: toxicity; conditions: salmonella enterica subsp. enterica serovar typhimurium
[10] = Volume of distribution at steady state in Beagle dog at 0.5 mg/kg, po or iv; format: ADME, organism-based, Canis lupus familiaris; conditions: in vivo, read-out: Vdss
[11] = Toxicity in Beagle dog assessed as effect on body temperature at 0.1 to 1 mg/kg; format: organism-based, Canis lupus familiaris; conditions: in vivo, dose 0.1-1 mg/kg
[12] = Oral bioavailability in Beagle dog at 0.25 mg/kg; format: ADME, organism-based, Canis lupus familiaris; conditions: in vivo
[13] = Cmax in Sprague-Dawley rat brain at 10 mg/kg, po; format: ADME, organism-based; design: route oral, dose 10 mg/kg
[14] = MRT (0 to infinity) in Beagle dog at 0.25 mg/kg, iv; format: ADME, organism-based, Canis lupus familiaris; conditions: in vivo
[15] = Genotoxicity in Salmonella typhimurium TA98 by Ames test; format: toxicity; conditions: salmonella enterica subsp. enterica serovar typhimurium
[16] = Toxicity in Sprague-Dawley rat assessed as animal death at upto 30 mg/kg, po for 4 weeks; format: organism-based; conditions: in vivo, 672 h
[17] = Cardiotoxicity in Beagle dog assessed as effect on […] at 0.1 to 1 mg/kg; format: toxicity, organism-based, Canis lupus familiaris; conditions: in vivo, dose 0.1-1 mg/kg
[18] = Volume of distribution at steady state in Sprague-Dawley rat at 0.5 mg/kg, po or iv; format: ADME, organism-based; conditions: in vivo, read-out: Vdss
[19] = Cardiotoxicity in Beagle dog assessed as effect on QRS interval at 0.1 to 1 mg/kg; format: toxicity, organism-based, Canis lupus familiaris; conditions: in vivo, dose 0.1-1 mg/kg
Mus musculus [20] = experiment: Cognitive enhancing effect in ig dosed APP/PS1 double mutant-transgenic mouse model assessed as increase in spontaneous alteration administered once daily by Y-maze test; format: functional, organism-based; conditions: dose 0.25-1 mg/kg
[21] = Tmax in Sprague-Dawley rat plasma at 10 mg/kg, po; format: ADME, organism-based
[22] = Protein binding in rat plasma; format: ADME, cell-free; conditions: read-out: PPB (converted)
[23] = Terminal half life in human plasma at 2 mg, po; format: ADME, cell-free; conditions: read-out: beta t1/2 (converted)
[24] = AUC (0 to infinity) in Sprague-Dawley rat plasma at 10 mg/kg, po; format: ADME, organism-based; design: route oral, time infinity, dose 10 mg/kg
[25] = Clearance in Sprague-Dawley rat at 0.5 mg/kg, iv; format: ADME, organism-based; conditions: in vivo
[26] = Terminal half life in human plasma at 8 mg, po; format: ADME, cell-free; conditions: read-out: beta t1/2 (converted)
[27] = MRT in Sprague-Dawley rat brain at 10 mg/kg, po; format: ADME, organism-based
[28] = Efflux ratio of apparent permeability across basolateral to apical side over apical to basolateral side in human Caco-2 cells; format: ADME, cell-based
[29] = Terminal half life in human plasma at 1 mg, po; format: ADME, cell-free; conditions: read-out: beta t1/2 (converted)
Mus musculus [30] = experiment: Improvement in learning and spatial memory in APP/PS1 double mutant-transgenic mouse model assessed as increase in time spent in target quadrant at 0.5 to 1 mg/kg, IG QD by Morris water maze test; format: functional, organism-based; conditions: dose 0.5-1 mg/kg
[31] = Half life in Sprague-Dawley rat at 0.5 mg/kg, po; format: ADME, organism-based; conditions: in vivo
[32] = MRT in Sprague-Dawley rat plasma at 10 mg/kg, po; format: ADME, organism-based
[33] = AUC(0 to infinity) in Sprague-Dawley rat brain at 10 mg/kg, po; format: ADME, organism-based; design: route oral, time infinity, dose 10 mg/kg
Butyrylcholinesterase = Butyrylcholinesterase (Rattus norvegicus, UniProt Q9JKC1); experiment: Inhibition of rat serum BuChE using S-butyrylthiocholine iodide as substrate incubated for 8 mins by Ellman's method; format: cell-free
[34] = Permeability in human Caco-2 cells at 2 to 50 uM; format: ADME, cell-based; conditions: dose 2-50 µM, read-out: permeability
[35] = Cmax in human plasma at 12 mg, po; format: ADME, cell-free; design: route oral, dose 12 mg
[36] = Protein binding in dog plasma; format: ADME, cell-free, Canis lupus familiaris; conditions: read-out: PPB (converted)

Chain of Acetylcholinesterase (P22303 whole entry): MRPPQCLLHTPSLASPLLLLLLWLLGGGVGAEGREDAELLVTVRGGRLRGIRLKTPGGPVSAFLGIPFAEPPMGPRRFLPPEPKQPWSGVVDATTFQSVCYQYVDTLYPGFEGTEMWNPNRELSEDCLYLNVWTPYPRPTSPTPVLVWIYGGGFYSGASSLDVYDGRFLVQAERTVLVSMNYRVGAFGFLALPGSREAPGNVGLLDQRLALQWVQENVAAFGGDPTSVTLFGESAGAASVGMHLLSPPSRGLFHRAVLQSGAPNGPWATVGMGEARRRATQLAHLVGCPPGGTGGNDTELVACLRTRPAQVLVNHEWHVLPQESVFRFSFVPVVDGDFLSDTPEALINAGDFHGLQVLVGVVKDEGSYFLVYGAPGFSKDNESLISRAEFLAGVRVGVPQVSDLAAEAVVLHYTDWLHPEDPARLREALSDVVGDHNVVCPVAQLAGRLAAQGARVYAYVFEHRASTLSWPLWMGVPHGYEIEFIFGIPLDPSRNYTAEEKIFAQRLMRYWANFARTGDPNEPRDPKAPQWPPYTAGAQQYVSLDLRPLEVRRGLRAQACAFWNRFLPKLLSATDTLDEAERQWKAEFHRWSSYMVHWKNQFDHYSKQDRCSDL
Chain of Butyrylcholinesterase (Q9JKC1 whole entry): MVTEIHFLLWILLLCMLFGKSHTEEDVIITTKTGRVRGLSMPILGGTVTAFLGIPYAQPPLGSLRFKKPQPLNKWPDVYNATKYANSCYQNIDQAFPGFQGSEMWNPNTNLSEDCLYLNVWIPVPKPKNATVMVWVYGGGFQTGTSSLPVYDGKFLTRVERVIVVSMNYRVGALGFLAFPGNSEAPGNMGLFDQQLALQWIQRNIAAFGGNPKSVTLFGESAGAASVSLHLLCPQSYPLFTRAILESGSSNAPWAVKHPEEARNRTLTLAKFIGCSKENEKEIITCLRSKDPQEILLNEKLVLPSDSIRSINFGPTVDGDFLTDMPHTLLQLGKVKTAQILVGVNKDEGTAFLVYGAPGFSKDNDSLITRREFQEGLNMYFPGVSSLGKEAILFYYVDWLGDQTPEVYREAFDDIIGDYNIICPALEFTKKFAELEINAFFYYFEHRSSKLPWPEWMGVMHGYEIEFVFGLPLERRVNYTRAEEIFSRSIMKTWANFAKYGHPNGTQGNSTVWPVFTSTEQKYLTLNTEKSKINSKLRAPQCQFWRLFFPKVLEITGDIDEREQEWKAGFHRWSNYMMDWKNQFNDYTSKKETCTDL
Chain of Voltage-gated inwardly rectifying potassium channel KCNH2 (Q12809 whole entry): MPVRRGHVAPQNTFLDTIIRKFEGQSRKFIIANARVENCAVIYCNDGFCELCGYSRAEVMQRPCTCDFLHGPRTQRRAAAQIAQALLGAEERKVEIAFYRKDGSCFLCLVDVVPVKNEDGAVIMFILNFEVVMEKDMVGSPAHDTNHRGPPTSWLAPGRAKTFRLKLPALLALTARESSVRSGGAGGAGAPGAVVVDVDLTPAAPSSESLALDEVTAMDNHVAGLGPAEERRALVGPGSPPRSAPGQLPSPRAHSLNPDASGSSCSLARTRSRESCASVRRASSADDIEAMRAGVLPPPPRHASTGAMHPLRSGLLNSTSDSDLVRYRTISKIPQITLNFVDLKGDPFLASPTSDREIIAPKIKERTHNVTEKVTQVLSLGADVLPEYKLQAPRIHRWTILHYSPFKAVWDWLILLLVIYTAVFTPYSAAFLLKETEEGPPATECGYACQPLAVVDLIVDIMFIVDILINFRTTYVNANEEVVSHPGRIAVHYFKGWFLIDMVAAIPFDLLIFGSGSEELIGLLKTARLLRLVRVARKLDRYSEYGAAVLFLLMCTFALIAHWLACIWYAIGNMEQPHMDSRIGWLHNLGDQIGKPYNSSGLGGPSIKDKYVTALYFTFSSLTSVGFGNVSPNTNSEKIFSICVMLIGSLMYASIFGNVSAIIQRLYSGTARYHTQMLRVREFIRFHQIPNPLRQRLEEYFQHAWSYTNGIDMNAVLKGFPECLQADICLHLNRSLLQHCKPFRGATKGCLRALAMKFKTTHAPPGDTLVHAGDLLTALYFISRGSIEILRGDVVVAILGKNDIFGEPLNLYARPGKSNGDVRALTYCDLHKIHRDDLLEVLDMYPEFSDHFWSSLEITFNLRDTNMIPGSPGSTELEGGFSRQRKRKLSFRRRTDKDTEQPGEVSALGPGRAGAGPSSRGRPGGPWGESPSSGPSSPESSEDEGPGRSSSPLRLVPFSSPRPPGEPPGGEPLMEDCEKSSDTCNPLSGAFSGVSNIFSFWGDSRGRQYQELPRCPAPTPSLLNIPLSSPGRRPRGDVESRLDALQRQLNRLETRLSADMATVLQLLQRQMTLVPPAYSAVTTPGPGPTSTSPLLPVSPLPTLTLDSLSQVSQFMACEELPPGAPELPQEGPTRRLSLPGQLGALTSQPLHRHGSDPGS

COc1cc2c(cc1OC)C(=O)C(CC1(F)CCN(Cc3ccccc3F)CC1)C2 (centres undefined)
Tmax [1]: 0.5 h | Activity [2]: Non-Toxic | Tmax [3]: 1.13 h | IC50 [4]: 9.23 µM | Cmax [5]: 16.9 ng/mL | IC50 (Cytochrome P450 2B6): > 30 µM | Cmax [6]: 2.43 ng/mL | Activity [7]: Non-Toxic | Activity (Mus musculus [8]): Active | Kd (Acetylcholinesterase): 0.0035 µM | Activity [9]: Non-Toxic | Vd [10]: 23.2 L/kg | Activity [11]: Non-Toxic | bioavailability [12]: 61.3% | Cmax [13]: 831 ng/mL | MRT inf [14]: 23.6 h | Activity [15]: Non-Toxic | Activity [16]: Non-Toxic | Activity [17]: Non-Toxic | Vd [18]: 6.52 L/kg | Activity [19]: Non-Toxic | Activity (Mus musculus [20]): Active | Tmax [21]: 0.5 h | fraction unbound [22]: 0.031 | half-life [23]: 20.7 h | AUC(0-inf) [24]: 1140 ng·h/mL | clearance [25]: 23.7 mL/min/kg | half-life [26]: 27.6 h | MRT [27]: 8.9 h | efflux ratio [28]: 0.67 | half-life [29]: 14.2 h | Activity (Mus musculus [30]): Active | half-life [31]: 4.17 h | MRT [32]: 6.81 h | AUC(0-inf) [33]: 6430 ng·h/mL | IC50 (Butyrylcholinesterase): 31.7 µM | Papp at up to 50 µM [34]: 0.574 ×10⁻⁶ cm/s | Cmax [35]: 23.5 ng/mL | fraction unbound [36]: 0.035
